Columns and labels:
HSV-2 = details: in vitro; cited from earlier work
HIV-1 = details: in vitro; cited from earlier work
HIV = details: cited from earlier work
[1] = some people; cited from earlier work
HPVs = details: cited from earlier work
HPV-11 = HPV-11 infection of human vaginal xenografts engrafted in immunocompromised mouse, virus pre-treated with candidate microbicide; format: in vivo; details: HPV-11 treated with 0.05% SDS at 37° C. for 10 minutes, then placed in lumen of grafts engrafted ten days in immunocompromised mouse
Excerpt: In this example, human vaginal xenografts were infected with HPV by inoculating the lumen of said vaginal xenografts, engrafted into a non-human host, with HPV-11 stock virus suspensions prepared according to the methods presented in Example 1. […] Furthermore, it is not necessary to traumatize the walls of said grafts during inoculation to precipitate infection.
In experimental samples, candidate microbicides are mixed with HPV in vitro prior to administration of said HPV/candidate microbicide mixture to the lumen of a vaginal xenograft engrafted into a non-human host. In an alternative experimental embodiment, candidate microbicides were pre-administered to the vaginal lumen, before delivery of a pathogenic agent, into the same lumen.
Xenografts are harvested at 70-90 days and are screened for signs of virus replication. Said screening protocols include quantification of morphologic transformations, viral DNA and RNA synthesis, and protein synthesis. In addition, cell-free extracts of infected xenografts are tested by bioassay for the presence of infectious virus using standard procedures for infection and transformation of vaginal epithelium. […]

[2] = system: human vaginal xenograft epithelium; test: Survival and morphology of treated epithelium in the human vaginal xenograft; format: in vivo; details: grafts receiving virus treated with 0.05% SDS
Description: In this example, human vaginal xenografts engrafted for ten days in the subcutaneous space of an immunocompromised mouse were infected with 10 u l of HPV-11, or HPV-11 that had been treated with 0.05% SDS at 37° C. for 10 minutes and then placed in the lumen of the grafts. At varying intervals, the infected human xenografts (or portions thereof) were surgically removed and examined.

[3] = parameters: species or system mice; details: mouse, in vivo
Excerpt: While it is not intended the present invention be limited to any specific formulation or dimension of silastic tubing, in one embodiment said silastic tubing was fabricated according to the following method. Tubing (0.078 in. inner diameter by 0.125 in. outer diameter; Dow Corning, Midland, Mich.) was filled with 17β-estradiol (1,3,5[10]-Estratriene-3, 17β) (Sigma Chemical Company, St. Louis, Mo.) mixed 1:3 (w/w) with silastic 382 medical grade elastomer (Dow Coming, St. Louis, Mo.). The mixture was allowed to dry and the tubing cut, in one embodiment, to a size (approximately 2×2×1 mm) which yielded a measurable circulating estradiol concentration of about 150-200 pg/ml in mice. It may be noted that this concentration of estradiol approximates the concentration of estrogen in women during the late follicular phase of the menstrual cycle.

Compound: Nonoxynol-9 [N-9]
- inactivation of HSV-2 (HSV-2): inactivates
- inactivation of HIV-1 (HIV-1): inactivates
- prevention of transmission of HIV to women (HIV): has not been proven to prevent transmission
- irritation and ulceration [1]: may cause irritation and ulceration in some people
- inactivation of / effectiveness against HPVs (HPVs): does not inactivate HPVs

Compound: CCCCCCCCCCCCOS(=O)(=O)[O-].[Na+] [SDS, Sodium Dodecyl Sulfate]
- prevention of virus infection (papillomatous transformation, virus DNA, virus protein) (HPV-11): effectively prevented virus infection
- killing of treated epithelium in the vaginal xenograft [2]: did not kill the treated epithelium
- morphology of tissues receiving treated virus [2]: stratified squamous epithelium with a morphology analogous to normal in situ vagina

Compound: C[C@]12CC[C@@H]3c4ccc(O)cc4CC[C@H]3[C@@H]1CC[C@@H]2O [17β-estradiol, 17β-estradiol (1,3,5[10]-Estratriene-3, 17β)]
- circulating estradiol concentration [3]: 150 to 200 pg/mL
